From the SangsterLogP compilation come the findings set out here.

As to `O=C(O)CCCO/N=C(/c1ccccc1)c1cnccn1`, the lipophilicity (logP) is -0.53. In the case of `O=C(O)CCCCCO/N=C(/c1ccccc1)c1cccnn1` it was -0.01. On to `O=C(O)CCCO/N=C(\c1ccccc1)c1ccnnc1`, for which the logP was -0.4. `O=C(O)CCCCCON=C(c1ccccc1)c1cnccn1`: the logP stood at 0.23. Consider `O=C(O)CCCO/N=C(/c1ccccc1)c1cccnn1`, for which the log partition coefficient (logP) is -0.27. In the case of `O=C(O)CCCCCO/N=C(/c1ccccc1)c1ccnnc1` it was 0.1; in that of `O=C(O)CCCCO/N=C(/c1ccccc1)c1cnccn1`, -0.23; in that of `O=C(O)CCCCO/N=C(/c1ccccc1)c1cccnn1`, 0. In turn, `O=C(O)CCCCO/N=C(/c1ccccc1)c1ccnnc1` had a logP of -0.33.

One may read the logP as the decadic logarithm of the partition coefficient of the neutral form, usually between octanol and water.
